Like-named read-outs stand apart in the source and are kept apart here.
How the values were obtained:
[1] = HSP distance Ra and relative energy difference RED of solvents versus plant wax HSP values; conditions: for RED 1: RED=Ra 1/Ro; for RED 1 / RED 2: Ro=7.1; for RED 2: RED=Ra 2/Ro
Description: The HSP distance between two molecules, conventionally called Ra, is the measure of how alike they are. The smaller the Ra, the more likely they are to be compatible. A quantity called the relative energy difference (RED) may be used to measure relative distance:
where Ro is the radius of the sphere that contains all good solvents. […] Generally, a value of Ro=7.1 is typical. For RED<1, the molecules are alike and will dissolve. For RED=1, the system will partially dissolve. For RED>1, the system will not dissolve.
A solvent with similar HSP values to these, or a solvent for which Ra (calculated as shown above) is small, or for which RED is less than or equal to 1, would be expected to partially solvate and soften plant leaf cuticle waxes.

[2] = cited from earlier work; for δD: energy from dispersion forces; for δH: energy from hydrogen bonds; for δP: energy from polar intermolecular force
[3] = HSP distance to lower plant wax HSP values (δD=16.0-16.3, δP 0-2.5, δH=0-3.1)
[4] = HSP distance to upper plant wax HSP values (δD=16.0-16.3, δP 0-2.5, δH=0-3.1)

Compound | Ra 2 [1, 3] | Ra 1 [1, 4] | RED 1 [1] | RED 2 [1] | δD [2] [MPa^1/2] | δH [2] [MPa^1/2] | δP [2] [MPa^1/2] | Ra 1 [1] | Ra 2 [1]
CC1CCCCC1 [Methyl Cyclohexane] |  |  | 0.14 | 0.47 | 16 | 1 | 0 | 1.0 | 3.3
CC1COC(=O)O1 (stereo not shown) [Propylene Carbonate] | 17.2 | 20.1 | 2.83 | 2.42 | 20 | 4.1 | 18 |  | 
CC1=CC=C(C(C)C)CC1 [alpha terpinene] | 2.1 | 4.7 | 0.67 | 0.30 | 16.2 | 4.6 | 1 |  | 
CC1=CC[C@@H](C(C)(C)O)CC1 [alpha terpineol] | 8.4 | 12.1 | 1.71 | 1.18 | 16.1 | 11.2 | 4.6 |  | 
OC1CCCCC1 [cyclohexanol] | 10.7 | 14.4 | 2.03 | 1.51 | 17.4 | 13.5 | 4.1 |  | 
CC12CCC(CC1)C(C)(C)O2 [eucalyptol] | 2.1 | 5.6 | 0.78 | 0.29 | 17 | 3.3 | 4 |  | 
CCCCCCCO [heptanol] | 9.3 | 13.0 | 1.83 | 1.31 | 16.57 | 12.27 | 4.09 |  | 
CCCCCCOC(C)=O [hexyl acetate] | 3.0 | 6.7 | 0.94 | 0.42 | 15.95 | 5.93 | 3.07 |  | 
CC1=CC(=O)CC(C)(C)C1 [isophorone] | 7.2 | 11.1 | 1.56 | 1.01 | 16.6 | 7.4 | 8.2 |  | 
Cc1cccc(O)c1 [m-Cresol] | 12.2 | 16.0 | 2.25 | 1.71 | 18.5 | 13.7 | 6.5 |  | 
CCCCCCCCCCCC(=O)OC [methyl dodecanoate] | 2.4 | 5.9 | 0.83 | 0.34 | 16.54 | 5.43 | 2.06 |  | 
CCCCCCCC(=O)OC [methyl octanoate] | 2.8 | 6.4 | 0.91 | 0.40 | 16.58 | 5.85 | 2.4 |  | 
CCCCOC(C)=O [n-Butyl Acetate] | 3.6 | 7.3 | 1.03 | 0.50 | 15.8 | 6.3 | 3.7 |  | 
CCCCOC(=O)CC [n-Butyl Propionate] |  |  | 1.14 | 0.60 | 15.7 | 5.9 | 5.5 | 8.1 | 4.3
CC(=O)OC(C)(C)C [t-Butyl Acetate] | 4.1 | 7.3 | 1.03 | 0.57 | 15 | 6 | 3.7 |  | 
CC(C)(C)O [t-Butyl Alcohol] | 12.1 | 15.6 | 2.20 | 1.70 | 15.2 | 14.7 | 5.1 |  | 

Now from value to compound, other results behind:

Ra 2 [1, 3] | Ra 1 [1, 4] | RED 1 [1] | RED 2 [1] | Compound | δD [2] [MPa^1/2] | δH [2] [MPa^1/2] | δP [2] [MPa^1/2] | Ra 1 [1] | Ra 2 [1]
8.1 | 10.8 | 1.52 | 1.14 | O=C(OCc1ccccc1)c1ccccc1 [Benzyl Benzoate] | 20 | 5.2 | 5.1 |  | 
19.6 | 22.6 | 3.19 | 2.76 | O=C1OCCO1 [Ethylene Carbonate] |  |  |  |  | 
9.6 | 13.3 | 1.88 | 1.35 | CCCCOCCO [Ethylene Glycol Monobutyl Ether] | 16 | 12.3 | 5.1 |  | 
4.4 | 7.8 | 1.10 | 0.62 | CC(=O)OCCC(C)C [Iso-Pentyl Acetate] | 15.3 | 7 | 3.1 |  | 
1.9 | 5.9 | 0.83 | 0.27 | CCCCCCCC/C=C\CCCCCCCC(=O)OC [Methyl Oleate] | 16.2 | 4.5 | 3.8 |  | 
5.6 | 9.1 | 1.28 | 0.79 | CCCCOC(=O)c1ccccc1 [butyl benzoate] | 18.3 | 5.5 | 5.6 |  | 
9.3 | 13.2 | 1.85 | 1.31 | CCCCOC(=O)CC(C)O (stereo not shown) [butyl-3-hydroxybutyrate] | 16.10 | 11.50 | 6.40 |  | 
4.0 | 1.6 | 0.23 | 0.56 | C1CCCCC1 [cyclohexane] | 16.8 | 0.2 | 0 |  | 
2.3 | 5.2 | 0.74 | 0.32 | C=C(C)[C@H]1CC=C(C)CC1 [d-limonene] | 17.2 | 4.3 | 1.8 |  | 
4.4 | 1.3 | 0.19 | 0.62 | CCCCCCC [heptane] | 15.34 | 0 | 0 |  | 
3.8 | 7.5 | 1.06 | 0.54 | C=CC(C)(O)CCC=C(C)C (stereo not shown) [linalool] | 16.5 | 6.9 | 2.8 |  | 
3.2 | 1.1 | 0.16 | 0.45 | Dimethyl Cyclohexane | 16.1 | 1.1 | 0 |  | 
